# Test results published in patent US11939324B2, “Compounds for the treatment of epilepsy, neurodegenerative disorders and other CNS disorders” (reMYND N.V., priority 2017, dated 2024).
# Experiments:
# M17-TAU P301L cells [1] = assay: TAU-induced toxicity: LDH leakage of retinoic acid incubated M17-TAU P301L cells; format: cell-based, human; conditions: for EC50: Homo sapiens, reduction of LDH activity of retinoic acid incubated M17-TAU P301L cells, read-out: EC50 (μg/ml) TAU-induced toxicity
# From the text: A TAU expression plasmid was constructed by sub-cloning the cDNA of human TAU-P301L (encoding for TAU with proline 301 substituted by a leucine residue) into mammalian expression vector pcDNA3.1 resulting in plasmid pcDNA3.1-TAU P301L. Plasmids pcDNA3.1 and pcDNA3.1-TAU P301L were transfected to human neuroblastoma cells ([…]; ATCC No. CRL-2267) and independent clonal lines with the plasmids stably integrated into the genome were selected. […] Expression of the TAU P301L genes in the cell lines was confirmed by Western analysis.
# In degenerated or dead cells lactate dehydrogenase (LDH) leaks out of the cells into the extracellular environment due to a loss of plasma-membrane integrity. This principle was used to determine cytotoxicity by quantifying the level of leaked LDH into the growth medium relative to the sum of total LDH activity from living cells and dead cells.
# The detailed method for determining cytotoxicity was as follows: From appropriate precultures of M17-3.1 and M17-TAU(P301L) cells were seeded at 2500 cells/cm2 in Optimem Reduced Serum without phenol red (Gibco, Cat. 31985-047) supplemented with 1% fetal calf serum, 1 mM sodium pyruvate, 1× non-essential amino acids, 500 μg/ml G418 0.5× antibiotic/antimycotic. After 3 hours of incubation at 37° C./5% CO2 1 volume of Optimem Reduced Serum (same as described above; except without fetal calf serum) supplemented with 2.5 μM all-trans retinoic acid (ATRA) was added. The cells were further incubated for 7 days. Subsequently, LDH activity was determined using Promega Cytotox 96 Non-Radioactive cytotoxicity assay, (Cat. G1780) according the supplier's instructions.
# The M17-TAU P301L cell line made it possible to assess the ability of novel compounds to counteract TAU cytotoxicity. […] These measurements were used to calculate EC50 values.
# Exemplary compounds of the present invention are shown in Table 1, with their chemical structure and their EC50 value (expressed in μg/ml) as determined from example 12 in the TAU-induced toxicity experiment.
# M17-TAU P301L cells [2] = assay: Cytosolic calcium (Fura-2) in M17-TAU P301L cell model of calcium dyshomeostasis; format: cell-based; conditions: Homo sapiens, Fura-2 340/380 nm ratio, read-out: EC50 value of lowering cytosolic Ca^2+
# Protocol: Cystosic calcium was measured by loading the cells with a medium containing Fura-2 AM (Sigma-Aldrich), a cell permeable fluorescent probe for Ca^2+. Fura-2-AM was dissolved in DMSO plus 20% Pluronic Acid (F-127) (Invitrogen) in a 1:1 ratio and diluted in medium to a final concentration of 0.5 μM. To this loading medium probenecid (Sigma-Aldrich) was added to a final concentration of 2.5 mM. Then, culture medium was replaced by loading medium and after incubation for 1 hour at 37° C. cells were washed twice and replaced with HBSS (Gibco) supplemented with 0.2% FBS and 0.02M HEPES. Next, changes in cytosolic calcium were measured using a FlexStation 3 microplate reader (Molecular Devices) and quantified ratiometric, by calculating changes in the amount of cytosolic Ca^2+ bound Fura-2 (fluorescence intensity at 340 nm) relative to the amount of Ca^2+ unbound Fura-2 (fluorescence intensity at 380 nm). Data was processed in SoftMax Pro 5.4.6 software (Molecular Devices).
# In addition compounds were tested to lower the elevated cytosolic calcium levels. In the presence of the compounds these cytosolic calcium levels were decreased.
# Compounds were tested to lower the elevated cytosolic Ca^2+ levels in the cell model of calcium dyshomeostasis (FIG. 1B) as described in example 10.
# Exemplary compounds of the present invention are shown in Table 2, with their chemical structure and their EC50 value of lowering cytosolic Ca^2+ (expressed in μg/ml).
# VGCC = assay: Ex-vivo inhibition of VGCC activity: KCl-induced Ca2+ influx in primary neurons (Fura2); format: cell-based; conditions: 1.5 μm compound, 45 mM KCl, primary neurons from mouse embryos, FIG. 5, p<0.0001
# Protocol: Compound 6 was tested for its ability to inhibit VGCC activity in primary neurons. Neurons from mouse embryos were harvested and cultured using standard methods (such as used in Schlager et al., 2014. Cell reports, 8(5), pp. 1248-56). To stimulate VGCC activity, neurons were depolarized using 45 mM KCl and incubated with vehicle or compound at a concentration of 1.5 μm. Calcium influx was measured using fluorescent cytosolic Ca^2+ detection reagent Fura2.
# Changes in cytosolic Ca^2+ concentrations were measured after loading the cells with Fura-2 AM (Sigma-Aldrich), a cell permeable fluorescent probe for Ca^2+. Briefly, Fura-2-AM was dissolved in DMSO plus 20% Pluronic Acid (F-127) (Invitrogen) in a 1:1 ratio and diluted in medium to a final concentration of 0.5 μM. […] Next, changes in cytosolic calcium were measured using a FlexStation 3 microplate reader (Molecular Devices) and quantified ratiometric, by calculating changes in the amount of cytosolic Ca^2+ bound Fura-2 (fluorescence intensity at 340 nm) relative to the amount of Ca^2+ unbound Fura-2 (fluorescence intensity at 380 nm). […]
# Compounds were tested at […] for their ability to inhibit Ca^2+ influx in primary neurons (FIG. 5) as described in Example 14. […] The percentage (%) inhibition of Ca^2+ influx relative to vehicle treated neurons was calculated.
# TAU phosphorylation = assay: In vivo inhibition of TAU phosphorylation in brain of APP*PS1 mice (Western analysis); conditions: 20 mg/kg subcutaneously daily for 2 weeks, 5 month old APP*PS1 mice, versus vehicle, FIG. 6
# From the text: FIG. 6 represents graphs plotting quantifications of pathologically phosphorylated TAU species determined by Western blots of brain extracts from transgenic APP mice treated with vehicle or with exemplary Compound 6. The graphs depict the mean normalized TAU signals±SEM. ** indicate p<0.01 relative to vehicle treated animals. The TAU signals were obtained by using antibodies directed against: • (A) AT8 p-TAU, indicates the antibody recognising p-TAU phosphorylated on serine 202 and threonine 205 • (B) AD2 p-TAU, indicates the antibody recognising p-TAU phosphorylated on serines 396 and 404 • (C) phosphorylated TAU on T231 • (D) phosphorylated TAU on S262.
# Transgenic human 5 month old APP*PS1 mice (The Journal of Neuroscience, Sep. 1, 2000, 20(17):6452-6458) were treated daily subcutaneously with 20 mg/kg Compound 6 for 2 weeks.
# At the end of the treatment period, mice were sacrificed and the corresponding brains were used for biochemical analysis.
# mouse brain slices = assay: Afterhyperpolarization of single action potentials in mouse brain slices; format: cell-based; conditions: versus vehicle, FIG. 9, p<0.05
# Protocol: FIG. 9 represents a graph plotting the afterhyperpolarization (AHP) amplitude of single action potentials by somatic current clamp recordings using mouse brain slices incubated with vehicle or Compound 6. * indicates p<0.05.
# Somatic or dendritic (>200 μm from the soma) current-clamp recordings were performed at RT (24 to 28° C.) and slices were continuously perfused with carboxygenated standard aCSF, supplemented with control or test article REM0043039 at 2 μM. For whole-cell recordings, patch pipettes were filled with a solution containing (in mM) 140 K-gluconate, 5 NaCl, 2 MgCl2, 10 HEPES, 0.5 EGTA, 2 MgATP, 0.4 NaGTP, osmolarity 305, pH adjusted to 7.25 with KOH. The soma or dendrite of large CA1 pyramidal neurons were identified and patch-clamped after visual approach of the recording pipette using a combination of infrared light and differential interference contrast (DIC) optics. […] Recordings were terminated when the series resistances exceeded 40 MO. Signals were digitized and low-pass filtered at 10 kHz. The signal was amplified with an Axopatch 200B amplifier, digitized by a Digidata 155 interface and sampled with Clampex 10 (Molecular Devices, CA). […]
# Action potentials (AP) after electrical stimulation of mouse brain slices were analysed (FIG. 9). […]
# CA1 pyramidal neurons = assay: Neuronal firing rate in brain slices from tgAPP mice (patch clamp, CA1); format: cell-based, mouse; conditions: 2 μM, 1 hr perfusion, higher stimuli, FIG. 8
# Protocol: Brain slices from wild type and tgAPP mice were incubated with DMSO or Compound 6. Neurons were stimulated with increasing currents and the frequency of action potentials (firing rate) was measured.
# In tgAPP mice the frequency of action potentials at higher stimuli was higher.
# Acute sagittal brain slices from WT or hAPP mice were prepared by decapitation of the mice after isoflurane anaesthesia. Brains were removed quickly and immersed during 3-4 min in ice-cold freshly prepared cutting artificial cerebrospinal fluid (cutting aCSF) containing (in mM) 214 sucrose, 2.5 KCl, 2 CaCl2, 2 MgSO4, 1.25 NaH2PO2, 26 NaHCO3 and 10 glucose and oxygenated with 95% O2/5% CO2. Sagittal 350 μm slices were generated using a vibratome (VT 1000S; Leica Microsystems) and were incubated in standard carboxygenated aCSF (in mM: 125 NaCl, 2.5 KCl, 2 CaCl2, 2 MgSO4, 1.25 NaH2PO2, 26 NaHCO3 and 10 glucose, osmolarity 305 mOsm) at 34° C. during 20 min. The incubation continued at room temperature (RT) for another hour before each slice was transferred to a submerged recording chamber and perfused continuously with carboxygenated aCSF. […]
# Dendritic firing rate of CA1 cells was recorded in response to hyperpolarizing and depolarizing steps (−0.4 to +0.45 nA, steps of 0.05 nA) after a 1 hr perfusion with vehicle or compound at 2 μM. […]
# [3] = tested on: Transgenic human APP mice; assay: Morris Water Maze cognition test in transgenic APP mice; format: in vivo; conditions: 20 mg/kg subcutaneously daily for 8 weeks, versus vehicle
# Protocol: P-value refers to the treatment of transgenic APP mice with exemplary Compound 6 versus vehicle.
# Transgenic human of 4 months of age APP mice (THE JOURNAL OF BIOLOGICAL […] Vol. 274, No. 10, Issue of March 5, pp. 6483-6492, 1999) were treated subcutaneously, daily for 8 weeks with Compound 6 at 20 mg/kg. Cognition was assessed using the Morris Water Maze test. […] After the learning phase a probe test was conducted in which the platform was removed from the water bath to evaluate the spatial memory of the location of the platform.
# Both indices indicate that compound treated mice have improved cognitive performance almost identical to wild type controls compared to vehicle treated mice.
# [4] = tested on: primary rat hippocampal neurons; assay: Ex-vivo inhibition of oligomeric amyloid beta (ADDL) toxicity in primary neurons; format: cell-based; conditions: 100 ng/mL, 1000 nM ADDL, 24 h, FIG. 4
# Protocol: An exemplary compound of this invention was tested for its ability to inhibit toxicity elicited by oligomeric amyloid beta (Aβo). Neurons from rat embryos were harvested and cultured using standard methods (such as used in Schlager et al., 2014. Cell reports, 8(5), pp. 1248-56.). Differentiated neurons were challenged with Apo and viability was quantified.
# At day in-vitro 19 days after isolation primary hippocampal neurons were transfected with Marcks-GFP in order to visualize the neurons with fluorescence microscopy.
# ADDL (Abeta-derived diffusible ligands) preparation (representing Aβo) was done according to Klein (Klein, 2002. Neurochemistry international, 41(5), pp. 345-52.). Abeta 1-42 was purchased from AnaSpec Inc. and dissolved in HFIP to homogenize the peptide. HFIP was then evaporated in a speedvac and Abeta film was dried at −20° C. overnight over desiccant. Abeta film was then resolubilised in 100% DMSO and further diluted (1/25) in Ham's F12 medium. […]
# The solution was centrifuged at 14.000×g for 10 min at 4° C. and supernatants were transferred to fresh tubes and protein concentration determined by NanoDrop®.
# At day in-vitro 21 primary rat hippocampal neurons were treated with equal volume of Blank/ADDL solution amounting to 0 and 1000 nM ADDL. […] Viability was assessed using the Live-Dead assay from Thermo Fisher Catalog number: L3224. […]
SMILES,EC50 (M17-TAU P301L cells [1]),EC50 (M17-TAU P301L cells [2]),other results
O=C(NCCc1c[nH]c2ccc(F)cc12)c1cc(Cc2ccc(F)cc2F)on1 [Compound 1],0.002 µg/mL,1 ng/mL,–
O=C(NCCc1c[nH]c2ccc(F)cc12)c1cc(Cc2ccc(F)c(F)c2)on1 [Compound 2],0.002 µg/mL,1.4 ng/mL,–
O=C(NCCc1c[nH]c2ccc(F)cc12)c1cc(Cc2cc(F)cc(F)c2)on1 [Compound 3],0.0021 µg/mL,2.4 ng/mL,–
O=C(NCCc1c[nH]c2ccc(F)cc12)c1cc(Cc2ccc(F)cc2)on1 [Compound 4],0.0022 µg/mL,3.5 ng/mL,–
O=C(NCCc1c[nH]c2ccc(F)cc12)c1cc(Cc2cccc(F)c2F)on1 [Compound 5],0.0028 µg/mL,7.1 ng/mL,–
O=C(NCCc1c[nH]c2ccc(F)cc12)c1cc(Cc2cc(F)ccc2F)on1 [Compound 6],0.0034 µg/mL,2.4 ng/mL,Ca^2+ influx upon KCl depolarization (VGCC): significantly reduced; TAU phosphorylation in brain extracts (TAU phosphorylation): more effectively reduced TAU phosphorylation; afterhyperpolarization (AHP) amplitude of action potentials (mouse brain slices): increased; frequency of action potentials (firing rate) (CA1 pyramidal neurons): significantly lowered the frequency towards wild type level; search path during training phase of Morris Water Maze ([3]; FIG. 7A): reduced search path; annulus crossing index score in probe test ([3]; FIG. 7B): higher annulus crossing index score; neuronal viability after Aβo challenge [4]: strongly rescued
O=C(NCCc1c[nH]c2ccc(F)cc12)c1cc(Cc2ccccc2F)on1 [Compound 7],0.0043 µg/mL,4.7 ng/mL,–
"COC(=O)C1=C(C)NC(C)=C(C(=O)OC(C)C)C1c1cccc2nonc12 (stereo not shown) [isradepine, reference compound]",–,–,"toxicity (LDH leaked into the medium) of RA-incubated cells (M17-TAU P301L cells [1]; FIG. 2, M17-TAU P301L cells with RA): toxicity is reduced"
